Measured values published in publication PMC13112199 (Nature nanotechnology, 2025).
Entries after “also recorded” stand apart in the source; their conditions may differ.

What was measured:
[1] = UPLC in vitro release assay of small molecules from MDP hydrogels; type: physicochemical
[2] = UV–vis stability of dynamic covalent bonding motifs in solution; details: pH 7.4 PBS, over 15 days
[3] = Boronate ester association; type: physicochemical; details: SHA vs catechol, across boronic acids
[4] = Bortezomib pharmacokinetics after subcutaneous injection; details: 175 ng sc, alone without hydrogel
[5] = female, BALB/c, mouse, in vivo, sc
[6] = high doses; cited from earlier work
M. tuberculosis H37Rv = assay: Mouse model of acute tuberculosis, lung CFU counts; type: in vivo, Mycobacterium tuberculosis; details: for reduction of colony-forming units in lungs: 600 μg single sc injection without hydrogel; for reduction in bacterial burden compared with vehicle control: ten oral doses of 60 μg
[7] = Stability of ganfeborole loaded in hydrogels quantified by UPLC; type: physicochemical
[8] = Ganfeborole pharmacokinetics after subcutaneous injection
blood glucose levels = assay: Mouse type 1 diabetes model, blood glucose control; type: in vivo; details: 3 IU sc without a hydrogel, diabetic mice
[9] = from Cat-K2 hydrogel, first 2 h
[10] = from nitroCat-K2 hydrogel, 24 h
[11] = from unmodified K2 hydrogel, first 2 h, 10 mg ml^-1 peptide, PBS, 37 °C
[12] = 600 μg in SHA-E2, non-compartmental analysis
[13] = 600 μg in SHA-K2 vs drug alone, non-compartmental analysis

COCCOc1nc(N)c2[nH]c(=O)n(Cc3ccc(C(=O)O)cc3)c2n1 [Compound 1V209]
in vitro release kinetics from SABER hydrogels ([1]; drug without BA, SABER hydrogels vs K2): no altered release kinetics were observed

O=C(NO)c1ccccc1O [SHA, salicylhydroxamic acid]
stability in solution by UV–vis [2]: excellent stability over 15 days in solution | boronate ester association constant relative to catechol association constants [3]: 6.5- to 9.6 fold

CC(C)C[C@H](NC(=O)[C@H](Cc1ccccc1)NC(=O)c1cnccn1)B(O)O [bortezomib]
maximum concentration [4]: 21.2 ± 3.1 ng/mL | drug released in vitro [1, 9]: > 57.1% | glucose dependence of in vitro release ([1]; from SHA-K2, physiologically relevant glucose range): independent of glucose concentration | drug released in vitro ([1]; from SHA-K2 hydrogel, 2 h): 15–25% | drug released in vitro ([1]; from SHA-K2 hydrogel, 24 h): 50–70% | drug released in vitro ([1]; from nitroCat-K2 hydrogel, 2 h): 15–25% | drug released in vitro [1, 10]: 50–70% | drug released in vitro [1, 11]: > 82.3% | blood concentration at 336 h relative to peak-matched 175 ng control [5]: 2.7 fold

NC[C@H]1OB(O)c2c(OCCO)ccc(Cl)c21 [ganfeborole]
tolerability in humans [6]: well tolerated in humans at high doses | bacterial burden reduction compared with oral dosing (M. tuberculosis H37Rv; 600 μg single injection in SHA-E2 vs ten oral doses): ~10 fold | reduction in bacterial lung burden compared with vehicle control (M. tuberculosis H37Rv; 600 μg single sc injection in SHA-E2, 7 days): 2.58 log10 | reduction in bacterial lung burden compared with vehicle control (M. tuberculosis H37Rv; 600 μg single sc injection in SHA-E2, 14 days): 4.12 log10 | reduction of colony-forming units in lungs (M. tuberculosis H37Rv; 7 days): 0.95 log10 | reduction of colony-forming units in lungs (M. tuberculosis H37Rv; 14 days): 1.55 log10 | reduction in bacterial burden compared with vehicle control (M. tuberculosis H37Rv; 7 days): 1.67 log10 | reduction in bacterial burden compared with vehicle control (M. tuberculosis H37Rv; 14 days): 3.32 log10 | in vitro release rate ([1]; from K2 hydrogel): similarly rapid release rates | drug released in vitro ([1]; from K2 hydrogel, 30 min): 59.0 ± 1.1% | in vitro release ([1]; from SHA-E2 hydrogel, loaded at 0.5 mg ml^-1): significantly slowed the release; also recorded: performed similarly to SHA-K2 | drug released in vitro ([1]; from SHA-K2 hydrogel, 24 h): 48.7 ± 2.5% | in vitro release rate ([1]; from SHA-K2 hydrogel, compared with K2): significantly extend the release | in vitro release rate ([1]; from nitroCat-K2 hydrogel): similarly rapid release rates | stability of drug loaded in hydrogel ([7]; in Cat-K2): rapid oxidative degradation; also recorded: rapidly degrades the compound | stability of drug loaded in hydrogel ([7]; in K2, nitroCat-K2 and SHA-K2 (all hydrogels except Cat-K2), two weeks): majority of the drug remains stable over the course of two weeks | in vivo release ([8]; 75 μg sc in 50 μl of 10 mg ml^-1 K2): unable to prolong drug release in vivo | duration of concentration above the EC50 relative to other groups ([8]; 75 μg sc in 50 μl of 10 mg ml^-1 SHA-K2, EC50 ref 51): over 4 fold | in vivo release ([8]; 75 μg sc in 50 μl of 10 mg ml^-1 nitroCat-K2): unable to prolong drug release in vivo | in vivo release compared with unmodified E2 hydrogel ([8]; 600 μg in 200 μl of 20 mg ml^-1 SHA-E2): prolongs drug release | enhancement of half-life compared with ganfeborole alone ([8]; 600 μg in SHA-E2): over 10 fold | effect on Cmax [8, 12]: reduces the maximum circulating concentration | effect on drug exposure (AUC) [8, 12]: improves drug exposure | effect on Cmax ([8]; 600 μg in SHA-K2 vs drug alone): reducing the maximum drug concentration | improvement of AUC [8, 13]: 2.8 fold | increase of half-life [8, 13]: 6.5 fold

CC(C)C[C@H](NC(=O)CNC(=O)c1cc(Cl)ccc1Cl)B(O)O [ixazomib]
drug released in vitro [1, 9]: > 57.1% | drug released in vitro ([1]; from SHA-K2 hydrogel, 2 h): 15–25% | drug released in vitro ([1]; from SHA-K2 hydrogel, 24 h): 50–70% | drug released in vitro ([1]; from nitroCat-K2 hydrogel, 2 h): 15–25% | drug released in vitro [1, 10]: 50–70% | drug released in vitro [1, 11]: > 82.3%

OB1OCc2cc(F)ccc21 [tavaborole]
drug released in vitro ([1]; from Cat-K2 hydrogel, 24 h): 80.0 ± 4.7% | drug released in vitro ([1]; from SHA-K2 hydrogel, 24 h): 49.1 ± 0.3% | drug released in vitro [1, 10]: 64.8 ± 0.9%

insulin: commercially purchased unmodified insulin
time until mice became hyperglycemic again (blood glucose levels): ≤ 4 h | time until mice became hyperglycemic again (blood glucose levels; listed as unmodified insulin): less than 4 h
